# Measurements published in patent publication US20170318812A1, “Plant and Crop Growth Regulating/Biostimulant Formulations and Methods of Use” (Arysta Lifescience North America, LLC, priority 2014, published 2017).
# Where “and” joins values, the source holds several entries; their conditions need not be identical. Equal values may be shown once.
# What was measured:
# Type in all cases: in vivo
# [1] = tested on: GLXMA Glycine max (Soybean); assay: Ipfencarbazone biostimulant effect, early post emergence foliar application, greenhouse pots, plant height: soybean; conditions: for HEIGHT, percent of untreated check (APoC) / HEIGHT, treatment mean / HEIGHT, single plots (replicates): GLXMA BMXPOTENCIA; for Plant HEIGHT, Mean / Plant HEIGHT, single plots: Soybean BMXPOTENCIA
# Source text: (§1) The original objective of this Example was to evaluate the herbicidal effect of ipfencarbazone when applied as a post emergent treatment to a range of selected crops and weeds. Unexpectedly, crop plant growth stimulation was observed. The actual species of weeds and crops are listed in the summary data tabulated below and in FIGS. 1-13. By convention each plant species has a Bayer code (5-letter name) with the scientific name for the plant referenced in FIGS. 1-13. In each Figure, each tray contains the same configuration of weeds and/or crops. In each Figure there is one replication of each treatment (six treatments in total). The top three photographs in each Figure show the Bayer Codes and bottom three photographs are aligned with the top three facilitating viewing of the same plant species. Throughout the Examples various abbreviations as conventional shorthand notation and will be appreciated by those skilled in the art. Some exemplary abbreviations include, “CV”=Co-efficient of Variation,” “LSD”=Least Significant Difference” (G/L (gram per L) AND GA/L (gram of active ingredient per L); “SC”=suspension concentrate formulation. The diluent in all treatments was water. By convention factors that are identical in all treatments (e.g. diluent and surfactant) are not listed in each treatment.
# (§2) Methods: The indicated size pots (see Tables below) are filled with a specific soil, the soil properties being indicated below. The referenced crops and weeds are planted by hand in each pot. […] The experiments include six treatments each replicated three times on each crop/weed species. At a specific time after emergence each crop and weed species was treated with ipfencarbazone plus a non-ionic surfactant (NIS). In the present Example, the surfactant employed was ENERGIC™ (non-ionic surfactant). The application timing is indicated in each of the Tables (1 or 2 leaf stage) below. Ipfencarbazone plus surfactant was diluted in water and applied at a rate equivalent to about 250 L/ha. Ipfencarbazone was applied using a track sprayer. After treatment, the pots were randomized in a greenhouse. At each assessment (indicated by “days after treatment” or DAT) the height of each plant was measured. The letters next to each mean indicate the level of statistical significance.
# (§3) Replications: 3, Untreated treatments: 1, Design: Randomized Complete Block (RCB), Treatment units: Treated ‘Plot’ experimental unit size, Dry Form. Unit: %, Treated ‘Plot’ experimental unit size Width: 1 meter, Treated ‘Plot’ experimental unit size Length: 1.4 meters, Application volume: 250 L/ha, Mix size: 0.15 liters, […]
# [2] = tested on: selected crops and weeds; assay: Post emergent treatment of a range of selected crops and weeds (FIGS. 1-13), measured and visual observation
# Source text: as §1, §2
# [3] = tested on: PHSVX Phaseolus vulgaris (Garden bean); assay: Ipfencarbazone biostimulant effect, early post emergence foliar application, greenhouse pots, plant height: dry bean; conditions: PHSVX PEROLA
# Source text: as §1, §2, §3
# [4] = 62.5 g ai/ha, 15 DA-A, plots 102, 205, 302
# [5] = 125 g ai/ha, 15 DA-A, plots 103, 206, 305
# [6] = 28 DA-A, 62.5 g ai/ha + Energic NIS 0.2 % v/v
# [7] = 28 DA-A, 125 g ai/ha + Energic NIS 0.2 % v/v
# [8] = 28 DA-A, 250 g ai/ha + Energic NIS 0.2 % v/v
# [9] = 28 DA-A, 1000 g ai/ha + Energic NIS 0.2 % v/v
smiles,measurement,setting,value
"CC(C)N(C(=O)n1cnn(-c2ccc(Cl)cc2Cl)c1=O)c1ccc(F)cc1F [ARY-0572-001, ipfencarbazone]","HEIGHT, percent of untreated check (APoC)","[1]; 62.5 g ai/ha, 15 DA-A",(113.4%)
same,"HEIGHT, treatment mean","[1]; 62.5 g ai/ha, 15 DA-A",15.0 a cm and 15.0 cm
same,"HEIGHT, single plots (replicates)",[1]; [4],15.3 cm and 14.8 cm (2×)
same,"HEIGHT, percent of untreated check (APoC)","[1]; 62.5 g ai/ha, 28 DA-A",(146.3%)
same,"HEIGHT, treatment mean","[1]; 62.5 g ai/ha, 28 DA-A",30.6a cm
same,"HEIGHT, percent of untreated check (APoC)","[1]; 125 g ai/ha, 15 DA-A",(84.9%)
same,"HEIGHT, treatment mean","[1]; 125 g ai/ha, 15 DA-A",11.2 abc cm and 11.2 cm
same,"HEIGHT, single plots (replicates)",[1]; [5],6.2 cm and 13.5 cm and 14.0 cm
same,"HEIGHT, percent of untreated check (APoC)","[1]; 125 g ai/ha, 28 DA-A",(113.8%)
same,"HEIGHT, treatment mean","[1]; 125 g ai/ha, 28 DA-A",23.8 ab cm
same,"HEIGHT, percent of untreated check (APoC)","[1]; 250 g ai/ha, 15 DA-A",(71.8%)
same,"HEIGHT, treatment mean","[1]; 250 g ai/ha, 15 DA-A",9.5 bcd cm and 9.5 cm
same,"HEIGHT, single plots (replicates)","[1]; 250 g ai/ha, 15 DA-A, plots 104, 201, 306",8.3 cm and 10.8 cm and 9.3 cm
same,"HEIGHT, percent of untreated check (APoC)","[1]; 250 g ai/ha, 28 DA-A",(87.8%)
same,"HEIGHT, treatment mean","[1]; 250 g ai/ha, 28 DA-A",18.3 bc cm
same,"HEIGHT, percent of untreated check (APoC)","[1]; 500 g ai/ha, 15 DA-A",(45.4%)
same,"HEIGHT, treatment mean","[1]; 500 g ai/ha, 15 DA-A",6.0 d cm and 6.0 cm
same,"HEIGHT, single plots (replicates)","[1]; 500 g ai/ha, 15 DA-A, plots 105, 202, 301",8.0 cm and 1.3 cm and 8.7 cm
same,"HEIGHT, percent of untreated check (APoC)","[1]; 500 g ai/ha, 28 DA-A",(63.3%)
same,"HEIGHT, treatment mean","[1]; 500 g ai/ha, 28 DA-A",13.2 c cm
same,"HEIGHT, percent of untreated check (APoC)","[1]; 1000 g ai/ha, 15 DA-A",(65.5%)
same,"HEIGHT, treatment mean","[1]; 1000 g ai/ha, 15 DA-A",8.7 cd cm and 8.7 cm
same,"HEIGHT, single plots (replicates)","[1]; 1000 g ai/ha, 15 DA-A, plots 106, 203, 304",6.7 cm and 10.0 cm and 9.3 cm
same,"HEIGHT, percent of untreated check (APoC)","[1]; 1000 g ai/ha, 28 DA-A",(71.3%)
same,"HEIGHT, treatment mean","[1]; 1000 g ai/ha, 28 DA-A",14.9 bc cm
same,"Plant HEIGHT, Mean",[1]; [6],30.6 cm
same,"Plant HEIGHT, single plots",[1]; [6],32.7 cm and 29.3 cm and 29.7 cm
same,"Plant HEIGHT, Mean",[1]; [7],23.8 cm
same,"Plant HEIGHT, single plots",[1]; [7],20.7 cm and 22.7 cm and 28.0 cm
same,"Plant HEIGHT, Mean",[1]; [8],18.3 cm
same,"Plant HEIGHT, single plots",[1]; [8],20.3 cm and 21.7 cm and 13.0 cm
same,"Plant HEIGHT, Mean","[1]; 28 DA-A, 500 g ai/ha + Energic NIS 0.2 % v/v",13.2 cm
same,"Plant HEIGHT, Mean",[1]; [9],14.9 cm
same,"Plant HEIGHT, single plots",[1]; [9],9.0 cm and 18.0 cm and 17.7 cm
same,effect on crop plant seedlings (growth),"[2]; about 60 to about 125 grams per hectare, corn, wheat, soybean and dry bean seedlings",positive effect
same,impact on plant growth,"[2]; applied post emergent, all crop and weed species evaluated, all use rates","significant, positive impact on plant growth"
same,"growth rate (biomass, leaf area, plant height)","[2]; early post treatment, wheat, sorghum, corn, soybean, dry bean and cotton",meaningful increase in growth rate
same,herbicidal effect,"[2]; higher rates, 500 and 1000 g a.i./ha, specific crops and weeds",some herbicidal effect
same,plant color (visual observation),[2]; treated plants compared to the untreated control,significant greening effect
same,"HEIGHT, percent of untreated check (APoC)","[3]; 62.5 g ai/ha, 15 DA-A",(105.6%)
same,"HEIGHT, treatment mean","[3]; 62.5 g ai/ha, 15 DA-A",10.4 a cm and 10.4 cm
same,"HEIGHT, single plots (replicates)",[3]; [4],11.7 cm (2×) and 8.0 cm
same,"HEIGHT, percent of untreated check (APoC)","[3]; 62.5 g ai/ha, 28 DA-A, AS square root transformation",(152.2%)
same,"HEIGHT, treatment mean","[3]; 62.5 g ai/ha, 28 DA-A, AS square root transformation (t)",19.8 a cm and 19.8t cm
same,"HEIGHT, single plots (replicates)","[3]; 62.5 g ai/ha, 28 DA-A, plots 102, 205, 302",24.0 cm and 17.3 cm and 19.7 cm
same,"HEIGHT, percent of untreated check (APoC)","[3]; 125 g ai/ha, 15 DA-A",(75.8%)
same,"HEIGHT, treatment mean","[3]; 125 g ai/ha, 15 DA-A",7.5 ab cm and 7.5 cm
same,"HEIGHT, single plots (replicates)",[3]; [5],0.0 cm and 10.7 cm and 11.8 cm
same,"HEIGHT, percent of untreated check (APoC)","[3]; 125 g ai/ha, 28 DA-A, AS square root transformation",(91.8%)
same,"HEIGHT, treatment mean","[3]; 125 g ai/ha, 28 DA-A, AS square root transformation (t)",12.0 a cm and 12.0t cm
same,"HEIGHT, single plots (replicates)","[3]; 125 g ai/ha, 28 DA-A, plots 103, 206, 305",4.3 cm and 16.0 cm and 20.3 cm
same,"HEIGHT, percent of untreated check (APoC)","[3]; 250 g ai/ha, 15 DA-A",(5.6%)
same,"HEIGHT, treatment mean","[3]; 250 g ai/ha, 15 DA-A",0.6 c cm and 0.6 cm
